In patent US7449546B2, “Method for extending storage of glutathione solutions and methods for treating Parkinson's disease with said stored glutathione solutions” (Kromar Medical Corporation, priority 2001, dated 2008):
Read-outs that look alike come from different tables or passages of the source.

Tests used:
[1] = for [G-SH]/[G-SH]0: storage at 5° C.
[2] = for [G-SH]/[G-SH]0: storage at 25° C.
Method: This solution was stored at room temperature (25° C.) for 74 days.

liver cancer = settings: oral, daily amount of 5,000 mg, eight patients; cited from earlier work
[3] = solution temperature lowered by 20° C. from room temperature

In the case of `N[C@@H](CCC(=O)N[C@@H](CS)C(=O)NCC(=O)O)C(=O)O` [reduced glutathione], the dimerization of glutathione [1, 3] is reported as “essentially stopped”, the “storage period of the reduced glutathione solution” value [1, 3] is reported as “significantly greater than four months” and the “[G-SH]/[G-SH]0” value ([1]; 1 day, 189 mg/ml, pH 6.4) is reported as 1.02. For the same compound, the “[G-SH]/[G-SH]0” value ([1]; 2 days, 189 mg/ml, pH 6.4) was 1.01, the “[G-SH]/[G-SH]0” value ([1]; 3 days, 189 mg/ml, pH 6.4) was 1.01 and the “[G-SH]/[G-SH]0” value ([1]; 7 days, 189 mg/ml, pH 6.4) was 1.02. The “[G-SH]/[G-SH]0” value ([1]; 14 days, 189 mg/ml, pH 6.4) was 1.00, the “[G-SH]/[G-SH]0” value ([1]; 21 days, 189 mg/ml, pH 6.4) was 0.99 and the “[G-SH]/[G-SH]0” value ([1]; 28 days, 189 mg/ml, pH 6.4) was 1.02. For the same compound, the “[G-SH]/[G-SH]0” value ([1]; 56 days, 189 mg/ml, pH 6.4) was 1.00, the “[G-SH]/[G-SH]0” value ([1]; 84 days, 189 mg/ml, pH 6.4) was 1.00 and the “[G-SH]/[G-SH]0” value ([1]; 112 days, 189 mg/ml, pH 6.4) was 0.98. For the same compound, the “decrease of reduced glutathione concentration over time” value ([1]; stored at 5° C., monitored for four months, 189 mg/ml, 0.005M octylammonium orthophosphate, pH 6.4) was “no decrease over time”, the “concentration of reduced glutathione relative to its initial value” ([2]; room temperature (25° C.), within three weeks, 180 mg/ml, pH 6.4) was 90% and the “safe storage time in aqueous solution” value ([2]; room temperature, absence of oxidation catalysts, criterion at least 90% of initial concentration) was “cannot be safely stored in aqueous solution at room temperature for longer than three weeks”. The “[G-SH]/[G-SH]0” value ([2]; 1 day, 180 mg/ml, pH 6.4) was 0.94, the “[G-SH]/[G-SH]0” value ([2]; 2 days, 180 mg/ml, pH 6.4) was 0.99 and the “[G-SH]/[G-SH]0” value ([2]; 3 days, 180 mg/ml, pH 6.4) was 0.99. For the same compound, the “[G-SH]/[G-SH]0” value ([2]; 7 days, 180 mg/ml, pH 6.4) was 0.98, the “[G-SH]/[G-SH]0” value ([2]; 14 days, 180 mg/ml, pH 6.4) was 0.95 and the “[G-SH]/[G-SH]0” value ([2]; 21 days, 180 mg/ml, pH 6.4) was 0.90. For the same compound, the “[G-SH]/[G-SH]0” value ([2]; 28 days, 180 mg/ml, pH 6.4) was 0.89, the “[G-SH]/[G-SH]0” value ([2]; 56 days, 180 mg/ml, pH 6.4) was 0.78 and the “[G-SH]/[G-SH]0” value ([2]; 74 days, 180 mg/ml, pH 6.4) was 0.68. For the same compound, the “effects in patients with liver cancer” value (liver cancer) was “modest effects in women but not in men”.
